Experiments:
[1] = Literature reported data; cited from earlier work
[2] = Dynamic vapor sorption (DVS); format: physicochemical; conditions: 25° C./90% RH

Row | Compound | BBB+ [1] | maximum water uptake (DVS) [2]
1 | C[C@@H](Nc1nc(N[C@H](C)C(F)(F)F)nc(-c2cccc(Cl)n2)n1)C(F)(F)F [AG-881] | Yes | 
2 | C[C@H](Nc1ccc(C#N)n(C)c1=O)c1cc2cc(Cl)ccc2[nH]c1=O [Compound 1 Type A, (S)-5-((1-(6-chloro-2-oxo-1,2-dihydroquinolin-3-yl)ethyl)amino)-1-methyl-6-oxo-1,6-dihydropyridine-2-carbonitrile] |  | 0.25 % w/w
3 | Cc1cc(-c2cnc([C@H](C)Nc3nccc(N4C(=O)OC[C@@H]4C(C)C)n3)nc2)ccc1F [IDH889] | Yes | 
4 | Cc1cc([C@H](C)Nc2nccc(N3C(=O)OC[C@@H]3C(C)C)n2)ncc1-c1ccnc(C(F)(F)F)c1 [IDH305] | Yes | 
5 | N#Cc1ccnc(N2C(=O)CC[C@H]2C(=O)N(c2cncc(F)c2)[C@H](C(=O)NC2CC(F)(F)C2)c2ccccc2Cl)c1 [AG-120] | No | 

— US11376246B2, “Inhibiting mutant IDH-1” (FORMA Therapeutics, Inc., priority 2018, dated 2022)
